This passage reports half-life and IC50 results from US10246448B2, “4-hydroxy-2-phenyl-1,3-thiazol-5-yl methanone derivatives as TRPM8 antagonists” (DOMPÉ FARMACEUTICI S.P.A., priority 2015, dated 2019).

A short description of data set [1]: Metabolic stability in rat microsomes, Phase I assay. In kind it is in vitro ADME. Conditions: pH 7.4; rat liver microsomes 0.5 mg/ml, compound 1 μM, NADP cofactors mixture, 37° C.; read-out: Metabolic Stability (t1/2, min) Phase1. As to the method: Compounds 1, 2, 8 and 9 in duplicate were dissolved in DMSO and pre-incubated, at the final concentration of 1 μM, for 10 min at 37° C. in potassium phosphate buffer 50 mM pH 7.4, 3 mM MgCl2, with rat liver microsomes (Xenotech) at the final concentration of 0.5 mg/ml.
After the pre-incubation period, reactions were started by adding the cofactors mixture (NADP, Glc6P, Glc6P-DH in 2% Sodium bicarbonte); samples (50 μl) were taken at time 0, 10, 20, 30 and 60 min added to 150 μl of acetonitrile with Verapamil 0.02 μM as Internal Standard (IS) to stop the reaction. After centrifugation the supernatants were analysed by LC-MS/MS.
A control sample without cofactors was added in order to check the stability of test compounds in the matrix after 60 min. 7-Ethoxycoumarin and propranolol were added as reference standards.
(In general: Liver microsomes are a subcellular fraction often used to study metabolism.)

A short description of data set [2]: Metabolic stability in rat microsomes, Phase II assay. It counts as in vitro ADME. To be noted: pH 7.4; rat liver microsomes 0.5 mg/mL, Alamethicin activated, UDPGA, compound 1 μM, 37° C.; read-out: Metabolic Stability (t1/2, min) Phase2. Here is the method: Rat liver microsomes (0.5 mg/mL final conc.) were incubated in ice for 15 min in 50 mM potassium phosphate buffer pH 7.4, 3 mM MgCl2 and activated with Alamethicin 50 μg/mg microsomal protein. Samples were transferred at 37° C. and compounds 1, 2, 8 and 9, dissolved in DMSO, were added in duplicate at the final concentration of 1 μM. After 5 min, reaction is started by adding 25 μl of UDPGA (16.15 mg/ml in 0.2% Sodium Bicarbonate). Samples were taken at time 0, 10, 20, 30 and 60 min added to 150 μl of acetonitrile with Verapamil 0.02 uM as Internal Standard (IS) to stop the reaction. After centrifugation the supernatants were analysed by LC-MS/MS. 7-Hydroxycoumarin was added as reference standard.

Data set [3] addresses T1, human TRPM8 (Homo sapiens, UniProt Q7Z2W7). Put plainly: In vitro TRPM8 assay: intracellular calcium levels, Ca2+ sensitive fluorescent dye (FLIPR), agonist Icilin or Cooling Agent 10. The arrangement: expressed in transfected cells. In kind it is cell-based. To be noted: HEK-293 cells stably expressing human TRPM8. Here is the method:
The TRPM8 antagonistic activity of all 26 compounds was determined by measuring changes in intracellular calcium levels using a Ca^+2 sensitive fluorescent dye. The experiments were performed using HEK-293 cells stably expressing the human TRPM8. Cells were seeded 10000 cells/well in 384 plates coated by Poly-D-Lysine MATRIX black/clear bottom (Thermo Scientific, Waltham, Mass. USA) in complete medium and grown overnight at 37° C., 5% CO2. 24 h after seeding, cell culture media was removed, cells were washed with Tyrode's assay buffer and then loaded with the fluorescent Ca^+2 indicator Fluo-4 NW dye (Molecular Probes, Life Technologies, Paisley, UK) supplemented with water-soluble Probenecid (Molecular Probes). Dye loaded cell plates were incubated for 1 h at room temperature. The compounds or vehicle were added and the kinetic response was monitored by a fluorimetric imaging plate ([…]; Molecular Devices, Sunnyvale, Calif., USA) over a period of five minutes (300 seconds). A second injection 5 minutes later of the reference agonist Cooling Agent 10 or Icilin at EC80 concentration was performed. The signal of the emitted fluorescence was recorded during additional three minutes. Data were analyzed by Spotfire DecisionSite version 9.1.1. The bioactivity exerted by the compounds or vehicle was expressed as a percent inhibition and IC50 values were then calculated.
(A change in cytosolic calcium serves as a functional read-out for many receptors and channels.)

Data set [4] has as its target T1, human TRPM8. Put plainly: In vitro cold stimulation assay.
Method: The TRPM8 antagonisticic activity of all 26 compounds was determined in an in vitro cold stimulation assay.
3-4 days after seeding (˜80% confluent cells), the medium was removed and cells were loaded by a solution of Screen Quest™ Fluo-8 NW dye (ABS Bioquest, Sunnyvale, Calif., USA) in the dark. Dye-loaded cell flasks were incubated for 45 minutes at room temperature in the dark and the Fluo-8 NW solution was then removed and cells were seeded in the 96 Assay Plates (MicroAmp™ Optical 96-Well Reaction Plates; Applied Biosystems, Life technologies) at 100,000 cells/'well (20 μl/well). […] All data point determinations were performed in duplicate before a mean value was calculated, including error bars representing the standard error of the mean.
Where [5] appears, read: agonist Cooling Agent 10 at EC80, read-out: Ca2+ (IC50 μM) Cool 10.
The mark [6] stands for this setting: agonist Icilin at EC80, read-out: Ca2+ (IC50 μM) Icilin.

As a reminder, the IC50 is the concentration that inhibits the measured activity by half.

T1 sequence (Q7Z2W7 whole entry): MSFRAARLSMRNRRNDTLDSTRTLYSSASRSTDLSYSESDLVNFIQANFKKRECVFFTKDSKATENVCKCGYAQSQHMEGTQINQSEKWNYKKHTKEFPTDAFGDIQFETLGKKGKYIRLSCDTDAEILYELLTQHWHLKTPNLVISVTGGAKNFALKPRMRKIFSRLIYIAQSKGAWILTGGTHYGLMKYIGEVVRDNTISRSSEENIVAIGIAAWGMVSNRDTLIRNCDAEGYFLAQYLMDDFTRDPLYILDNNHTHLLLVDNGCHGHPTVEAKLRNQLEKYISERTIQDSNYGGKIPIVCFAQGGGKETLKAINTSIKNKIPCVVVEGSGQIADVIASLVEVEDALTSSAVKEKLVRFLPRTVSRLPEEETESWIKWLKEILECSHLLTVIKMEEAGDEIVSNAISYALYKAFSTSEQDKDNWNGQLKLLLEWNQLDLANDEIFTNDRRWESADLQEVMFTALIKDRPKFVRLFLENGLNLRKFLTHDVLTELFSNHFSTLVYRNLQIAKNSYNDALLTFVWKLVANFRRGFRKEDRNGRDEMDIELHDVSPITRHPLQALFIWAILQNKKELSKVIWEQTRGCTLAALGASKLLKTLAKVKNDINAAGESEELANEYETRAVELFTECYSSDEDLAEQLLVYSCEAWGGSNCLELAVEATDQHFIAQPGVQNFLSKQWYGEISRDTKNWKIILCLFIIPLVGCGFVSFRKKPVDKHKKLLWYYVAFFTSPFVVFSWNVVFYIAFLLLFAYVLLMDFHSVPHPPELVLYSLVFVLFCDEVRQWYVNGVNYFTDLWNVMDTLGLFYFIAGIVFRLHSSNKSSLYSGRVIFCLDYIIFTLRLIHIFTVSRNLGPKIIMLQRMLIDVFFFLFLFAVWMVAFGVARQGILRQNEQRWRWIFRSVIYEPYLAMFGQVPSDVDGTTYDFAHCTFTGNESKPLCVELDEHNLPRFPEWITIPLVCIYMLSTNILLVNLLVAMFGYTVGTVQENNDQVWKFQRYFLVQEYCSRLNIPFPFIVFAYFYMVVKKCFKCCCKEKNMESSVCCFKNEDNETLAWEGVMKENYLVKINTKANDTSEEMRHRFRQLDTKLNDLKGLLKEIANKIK

Take `O=C(c1sc(-c2cccc(F)c2)nc1O)N1CCCOC1` [Example 10, [2-(3-fluorophenyl)-4-hydroxy-1,3-thiazol-5-yl](1,3-oxazinan-3-yl)methanone]: the half-life at 1 μM in data set [1] came to 55 min; in data set [2], 46 min. Moreover, the IC50 was found to be 0.256 µM on human TRPM8 [3] (setting [5]), 0.231 µM on human TRPM8 [3] (setting [6]) and 102 nM against human TRPM8 [4].
For `O=C(c1cccnc1)c1sc(-c2cccc(F)c2)nc1O` [Example 23, [2-(3-fluorophenyl)-4-hydroxy-1,3-thiazol-5-yl](pyridin-3-yl)methanone], in that order: 52 min, 51 min, 0.621 µM, 0.695 µM and 578 nM.
For `O=C(c1sc(-c2cccc(F)c2)nc1O)N1CCOCC1` [Example 12, [2-(3-fluorophenyl)-4-hydroxy-1,3-thiazol-5-yl](morpholin-4-yl)methanone], in that order: 54 min, 32 min, 0.963 µM, 1.21 µM and 853 nM.
For `O=C(c1sc(-c2cccc(F)c2)nc1O)N1CCCC1` [Example 7, [2-(3-fluorophenyl)-4-hydroxy-1,3-thiazol-5-yl](pyrrolidin-1-yl)methanone], in that order: 46 min, 51 min, 1.36 µM, 1.56 µM and 1230 nM.
On to `O=C(c1ccco1)c1sc(-c2cccc(F)c2)nc1O` [Example 19, [2-(3-fluorophenyl)-4-hydroxy-1,3-thiazol-5-yl](furan-2-yl)methanone], for which the half-life at 1 μM was 42 min in data set [1] and 21 min in data set [2]. In addition, the IC50 at human TRPM8 [3] (setting [5]) was 1.17 µM; on human TRPM8 [3] (setting [6]) it was 1.15 µM; against human TRPM8 [4], 1780 nM.
Consider `O=C(c1ccccn1)c1sc(-c2cccc(F)c2)nc1O` [Example 22, [2-(3-fluorophenyl)-4-hydroxy-1,3-thiazol-5-yl](pyridin-2-yl)methanone], for which the figures for the half-life at 1 μM in data set [1] and in data set [2] were 52 min and 55 min, respectively. The IC50 on human TRPM8 [3] (setting [5]) amounted to 0.523 µM; on human TRPM8 [3] (setting [6]) it was 0.54 µM; at human TRPM8 [4], 478 nM.
For `O=C(c1sc(-c2ccccc2O)nc1O)C1CCCO1` (centres unmarked) [Example 6, [4-hydroxy-2-(2-hydroxyphenyl)-1,3-thiazol-5-yl](oxolan-2-yl)methanone], in that order: 56 min, 33 min, 0.401 µM, 0.452 µM and 230 nM.
For `O=C(c1sc(-c2cccc(F)c2)nc1O)N1CC2(CC2)CO1` [Example 28, [2-(3-fluorophenyl)-4-hydroxy-1,3-thiazol-5-yl](5-oxa-6-azaspiro[2.4]heptan-6-yl) methanone], in that order: 73 min, 61 min, 0.086 µM, 0.143 µM and 54 nM.
For `O=C(c1sc(-c2cccc(F)c2)nc1O)N1CCCCCO1` [Example 27, [2-(3-fluorophenyl)-4-hydroxy-1,3-thiazol-5-yl](1,2-oxazepan-2-yl)methanone], in that order: 75 min, 63 min, 0.121 µM, 0.143 µM and 46 nM.
On to `O=C(c1sc(-c2cccc(F)c2)nc1O)n1ccnn1` [Example 31, [2-(3-fluorophenyl)-4-hydroxy-1,3-thiazol-5-yl](1H-1,2,3-triazol-1-yl)methanone], for which the half-life at 1 μM stood at 85 min in data set [1] and 67 min in data set [2]. Moreover, the results for the half-inhibitory concentration (IC50) on human TRPM8 [3] (setting [5]), on human TRPM8 [3] (setting [6]) and on human TRPM8 [4] were 0.94 µM, 0.082 µM and 50 nM, respectively.
Consider `O=C(c1sc(-c2cccc(F)c2)nc1O)C1CCCO1` (centres unmarked) [Example 5, [2-(3-fluorophenyl)-4-hydroxy-1,3-thiazol-5-yl](oxolan-2-yl)methanone], for which the values for the half-life at 1 μM in data set [1] and in data set [2] were 52 min and 45 min, respectively. Also, the IC50 was 0.326 µM on human TRPM8 [3] (setting [5]), 0.362 µM at human TRPM8 [3] (setting [6]) and 124 nM against human TRPM8 [4].
On to `O=C(c1sc(-c2cccc(F)c2)nc1O)N1CCCCC1` [Example 14, [2-(3-fluorophenyl)-4-hydroxy-1,3-thiazol-5-yl](piperidin-1-yl)methanone], for which the half-life at 1 μM came out at 67 min in data set [1] and 65 min in data set [2]. The figures for the IC50 on human TRPM8 [3] (setting [5]), at human TRPM8 [3] (setting [6]) and at human TRPM8 [4] were 1.51 µM, 1.47 µM and 985 nM, respectively.
For `O=C(c1sc(-c2ccccc2O)nc1O)N1CCCOC1` [Example 11, [4-hydroxy-2-(2-hydroxyphenyl)-1,3-thiazol-5-yl](1,3-oxazinan-3-yl)methanone], in that order: 51 min, 50 min, 0.281 µM, 0.256 µM and 106 nM.
